IC50 data for 13 molecules are collected here from patent US12338256B2, “Aza-tetracyclic oxazepine compounds and uses thereof” (Genentech, Inc., priority 2022, dated 2025).

Molecules are shown by their SMILES. Some results are limits rather than exact numbers.

Common to all, as to assay type: cell-based
In assay [1] the test system is HPAC (homozygous mutant KRAS G12D human pancreatic cell line). Put plainly: KRAS 3D-Cell Proliferation Assay, HPAC (Example 503). The note with it: Homo sapiens, HPAC, 168 h, HPAC 3D culture, 7 days, CellTiter-Glo 3D; read-out: Prolif HPAC 3D ATP IC50. In a few lines: (§1)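 Cells grown in 3D in ultra-low attachment plates (RPMI-1640 with 10% FBS and 2 mM L-glutamine) received compound dilution series after overnight attachment, at 0.3% DMSO final, for 7 days at 37° C. ATP luminescence (CellTiter-Glo 3D) normalized to DMSO and 1 μM staurosporine; IC50 from 4-parameter Hill fit.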
In general terms: In ATP-based viability assays light output follows the ATP content of the culture.

Assay [2] concerns H1975 (KRAS wild type human lung adenocarcinoma cell line). Put plainly: KRAS 3D-Cell Proliferation Assay, H1975 (Example 503). The following applies: Homo sapiens, NCI-H1975, 168 h, H1975 3D culture, 7 days, CellTiter-Glo 3D; read-out: Prolif H1975 3D ATP IC50. In a few lines:
as §1

Assay [3] deals with PC-9 (KRAS wild type human lung adenocarcinoma cell line). The experiment in a line: KRAS 3D-Cell Proliferation Assay, PC-9 (Example 503). The note with it: 168 h, PC-9 3D culture, 7 days, CellTiter-Glo 3D, read-out: Prolif PC9 3D ATP IC50. On the procedure:
Example 503: KRAS 3D-Cell Proliferation Assays. Cellular potencies of compounds are assessed by evaluating inhibition of proliferation in 3D cultures of homozygous mutant KRAS G12D human pancreatic cell lines (AsPC-1 and HPAC) as compared to a KRAS wild type human lung adenocarcinoma cell line (PC-9 and/or H1975). Cells are seeded into 384-well black round-bottom, ultra-low attachment assay plates in 50 uL cell growth medium (RPMI-1640 with 10% fetal bovine serum and 2 mM L-glutamine). After overnight incubation at 37° C. and 5% CO2, compounds solubilized in DMSO are added as dilution series to the wells in a total volume of 150 nL (0.3% DMSO final). The cells are incubated for 7 days at 37° C. and 5% CO2. Cell proliferation is quantitated by addition of 40 uL/well of CellTiter-GloÒ 3D (Promega), and the well contents are mixed 20× at high speed using liquid handling automation workstation (Bravo with 384-well head) and centrifuged at 1500 rpm for 2 minutes to eliminate bubbles. This reagent in combination with mechanical disruption releases the cellular ATP to promote activity in a luciferase-based enzyme/substrate chemiluminescent detection system. After a 30-minute incubation under ambient conditions with shaking and an additional 10 minutes without shaking, the luminescence is read on a plate reader (e.g., EnVision [PerkinElmer]). The results are normalized to percent inhibition based on the following control samples: DMSO (0% inhibition) and 1 μM staurosporine (100% inhibition). The normalized luminescence results are plotted against compound concentration, and the data are fit to a 4-parameter Hill equation to determine the IC50 values.

Assay [4] has as its system AsPC-1 (homozygous mutant KRAS G12D human pancreatic cell line). The experiment in a line: KRAS 3D-Cell Proliferation Assay, AsPC-1 (Example 503). The note with it: Homo sapiens, ASPC1, 168 h, AsPC-1 3D culture, 7 days, CellTiter-Glo 3D; read-out: Prolif AsPC-1 3D ATP IC50. In a few lines: as §1

As usually defined, the IC50 is the concentration that gives 50% inhibition. Take `C[C@@H]1Oc2nc(-c3cccc4cccc(Cl)c34)c(F)c3nc(OCC45CCN4CC(F)(F)C5)nc(c23)N2C[C@H]3CC[C@H](N3)[C@@H]12` (single isomer, unassigned) [Compound 21]: the 50% inhibitory concentration (IC50) in assay [1] amounted to 698 nM; in assay [2], 12200 nM; in assay [3] it was 7700 nM.
`Cc1cc(N)nc(-c2nc3c4c(nc(OC[C@]56CCN5CC(F)(F)C6)nc4c2F)N2C[C@H]4CC[C@H](N4)[C@H]2[C@H](C)O3)c1C(F)(F)F` (single isomer, unassigned) [Compound 45]: the IC50 in assay [3] is ≥ 20000 nM.
Consider `CN1CCC2COc3nc(-c4cc(O)cc5cccc(F)c45)c(F)c4nc(OC[C@@]56CCCN5C[C@H](F)C6)nc(c34)N2CC1` (single isomer, unassigned) [Compound 49], for which the IC50 in assay [4] is ≥ 20000 nM; in assay [3], 2370 nM.
For `Oc1cc(-c2nc3c4c(nc(OC[C@@]56CCCN5C[C@H](F)C6)nc4c2F)N2C[C@H]4CC[C@H](N4)[C@H]2CO3)c2c(F)cccc2c1` [Compound 1, 5-Fluoro-4-((5aS,6S,9R)-1-fluoro-12-(((2R,7aS)-2-fluorotetrahydro-1H-pyrrolizin-7a(5H)-yl)methoxy)-5a,6,7,8,9,10-hexahydro-5H-4-oxa-3,10a,11,13,14-pentaaza-6,9-methanonaphtho[1,8-ab]heptalen-2-yl)naphthalen-2-ol], in that order: 226 nM and 16900 nM.
For `Fc1c(-c2cccc3cccc(Cl)c23)nc2c3c(nc(OC[C@@]45CCCN4C[C@H](F)C5)nc13)N1C[C@H]3CC[C@H](N3)[C@H]1CO2` [Compound 2, (5aS,6S,9R)-2-(8-chloronaphthalen-1-yl)-1-fluoro-12-(((2R,7aS)-2-fluorotetrahydro-1H-pyrrolizin-7a(5H)-yl)methoxy)-5a,6,7,9,10-hexahydro-5H-4-oxa-3,10a,11,13,14-pentaaza-6,9-methanonaphtho[1,8-ab]heptalene], in that order: 565 nM and 4680 nM.
The matching figures for `Cn1ncc2ccc(F)c(-c3nc4c5c(nc(OC[C@@]67CCCN6C[C@H](F)C7)nc5c3F)N3C[C@H]5CC[C@H](N5)[C@H]3CO4)c21` [Compound 4, (5aS,6S,9R)-1-fluoro-2-(6-fluoro-1-methyl-1H-indazol-7-yl)-12-(((2R,7aS)-2-fluorotetrahydro-1H-pyrrolizin-7a(5H)-yl)methoxy)-5a,6,7,8,9,10-hexahydro-5H-4-oxa-3,10a,11,13,14-pentaaza-6,9-methanonaphtho[1,8-ab]heptalene]: 9750 nM and 13300 nM.
As to `C[C@@H]1Oc2nc(-c3cccc(N)c3F)c(F)c3nc(OC[C@@]45CCCN4C[C@H](F)C5)nc(c23)N2C[C@H]3CC[C@H](N3)[C@@H]12` [Compound 12, 2-fluoro-3-((5S,5aS,6S,9R)-1-fluoro-12-(((2R,7aS)-2-fluorotetrahydro-1H-pyrrolizin-7a(5H)-yl)methoxy)-5-methyl-5a,6,7,8,9,10-hexahydro-5H-4-oxa-3,10a,11,13,14-pentaaza-6,9-methanonaphtho[1,8-ab]heptalen-2-yl)aniline], the IC50 in assay [4] was 16600 nM; in assay [3], 13900 nM.
The matching figures for `Cc1cc(-c2nc3c4c(nc(OC[C@@]56CCCN5C[C@H](F)C6)nc4c2F)N2C[C@H]4CC[C@H](N4)[C@H]2[C@H](C)O3)cc(N)c1F` [Compound 13, 2-fluoro-5-((5S,5aS,6S,9R)-1-fluoro-12-(((2R,7aS)-2-fluorotetrahydro-1H-pyrrolizin-7a(5H)-yl)methoxy)-5-methyl-5a,6,7,8,9,10-hexahydro-5H-4-oxa-3,10a,11,13,14-pentaaza-6,9-methanonaphtho[1,8-ab]heptalen-2-yl)-3-methylaniline]: 1870 nM and 3530 nM.
For `C[C@@H]1Oc2nc(-c3cc(N)c(F)c(F)c3C(F)(F)F)c(F)c3nc(OC[C@@]45CCCN4C[C@H](F)C5)nc(c23)N2C[C@H]3CC[C@H](N3)[C@@H]12` [Compound 15, 2,3-difluoro-5-((5S,5aS,6S,9R)-1-fluoro-12-(((2R,7aS)-2-fluorotetrahydro-1H-pyrrolizin-7a(5H)-yl)methoxy)-5-methyl-5a,6,7,8,9,10-hexahydro-5H-4-oxa-3,10a,11,13,14-pentaaza-6,9-methanonaphtho[1,8-ab]heptalen-2-yl)-4-(trifluoromethyl)aniline], in that order: 1.57 nM and 2900 nM.
Regarding `Cc1cc(N)c(F)c(-c2nc3c4c(nc(OC[C@@]56CCN5CC(F)(F)C6)nc4c2F)N2C[C@H]4CC[C@H](N4)[C@H]2[C@H](C)O3)c1C(F)(F)F` [Compound 92, 3-((5S,5aS,6S,9R)-12-(((S)-3,3-Difluoro-1-azabicyclo[3.2.0]heptan-5-yl)methoxy)-1-fluoro-5-methyl-5a,6,7,8,9,10-hexahydro-5H-4-oxa-3,10a,11,13,14-pentaaza-6,9-methanonaphtho[1,8-ab]heptalen-2-yl)-2-fluoro-5-methyl-4-(trifluoromethyl)aniline], in assay [3], the IC50 is 11200 nM.
On to `Cc1nc(N)cc(-c2nc3c4c(nc(OC[C@@H]5CC[C@H]6COCCN65)nc4c2F)N2C[C@H]4CC[C@H](N4)[C@H]2[C@H](C(F)(F)F)O3)c1C(F)(F)F` [Compound 253, 4-((5R,5aS,6S,9R)-1-Fluoro-12-(((6S,8aS)-hexahydro-1H-pyrrolo[2,1-c][1,4]oxazin-6-yl)methoxy)-5-(trifluoromethyl)-5a,6,7,8,9,10-hexahydro-5H-4-oxa-3,10a,11,13,14-pentaaza-6,9-methanonaphtho[1,8-ab]heptalene-2-yl)-6-methyl-5-(trifluoromethyl)pyridin-2-amine], for which the IC50 in assay [4] amounted to 64.6 nM; in assay [1] it was 19.8 nM; in assay [2], 5080 nM.
For `Cc1nc(N)cc(-c2nc3c4c(nc(OC[C@@]56CCCN5CC5(CC5(F)F)C6)nc4c2F)N2C[C@H]4CC[C@H](N4)[C@H]2[C@H](C(F)(F)F)O3)c1C(F)(F)F` (stereo partly drawn) [Compound 254, 4-((5R,5aS,6S,9R)-12-(((7a′S)-2,2-Difluorodihydro-1′H,3′H-spiro[cyclopropane-1,2′-pyrrolizin]-7a′(5′H)-yl)methoxy)-1-fluoro-5-(trifluoromethyl)-5a,6,7,8,9,10-hexahydro-5H-4-oxa-3,10a,11,13,14-pentaaza[6,9]methanonaphtho[1,8-ab]heptalene-2-yl)-6-methyl-5-(trifluoromethyl)pyridin-2-amine], in that order: 2.5 nM, 1.86 nM and 139 nM.
For `Cc1nc(N)c(F)c(-c2nc3c4c(nc(OC[C@@]56CCCN5CC5(CC5(F)F)C6)nc4c2F)N2C[C@H]4CC[C@H](N4)[C@H]2[C@H](C(F)(F)F)O3)c1C(F)(F)F` (stereo partly drawn) [Compound 257, 4-((5R,5aS,6S,9R)-12-(((7a′S)-2,2-Difluorodihydro-1′H,3′H-spiro[cyclopropane-1,2′-pyrrolizin]-7a′(5′H)-yl)methoxy)-1-fluoro-5-(trifluoromethyl)-5a,6,7,8,9,10-hexahydro-5H-4-oxa-3,10a,11,13,14-pentaaza[6,9]methanonaphtho[1,8-ab]heptalen-2-yl)-3-fluoro-6-methyl-5-(trifluoromethyl)pyridin-2-amine], in that order: 8 nM, 8.37 nM and 5020 nM.
